Measurements: PubChem BioAssay AID256 (DTP/NCI, 2004)
Several values for one entry are separate records, joined by “and”; a condition that tells them apart may be missing. Equal values may be shown once. Inconclusive results and toxic doses are left out.

Tested on: CD2F1 mice, L1210 leukemia ip, survival T/C
Test: NCI In Vivo Anticancer Drug Screen. Data for tumor model L1210 Leukemia (intraperitoneal) in CD2F1 (CDF1) mice
Conditions: higher = longer survival
Outline: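 Tumor-bearing mice (transplanted tumor) were split into treated and vehicle control groups, and the measured endpoint of each treated group was divided by that of its vehicle controls.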

[1] = endpoint: mean survival time, dose: 100.0 mg/kg/injection, schedule: Q04DX003 (ip), vehicle: saline
[2] = endpoint: mean survival time, dose: 200.0 mg/kg/injection, schedule: Q04DX003 (ip), vehicle: saline
[3] = endpoint: mean survival time, dose: 400.0 mg/kg/injection, schedule: Q04DX003 (ip), vehicle: saline
[4] = endpoint: mean survival time, dose: 100.0 mg/kg/injection, schedule: Q04DX002 (ip), vehicle: saline with Tween-80
[5] = endpoint: mean survival time, dose: 200.0 mg/kg/injection, schedule: Q04DX002 (ip), vehicle: saline with Tween-80
[6] = endpoint: mean survival time, dose: 400.0 mg/kg/injection, schedule: Q04DX002 (ip), vehicle: saline with Tween-80
[7] = endpoint: mean survival time, dose: 25.0 mg/kg/injection, schedule: Q01DX009 (ip), vehicle: saline with Tween-80
[8] = endpoint: mean survival time, dose: 50.0 mg/kg/injection, schedule: Q01DX009 (ip), vehicle: saline with Tween-80
[9] = endpoint: mean survival time, dose: 100.0 mg/kg/injection, schedule: Q01DX009 (ip), vehicle: saline with Tween-80
[10] = endpoint: mean survival time, dose: 400.0 mg/kg/injection, schedule: Q01DX009 (ip), vehicle: saline with Tween-80
[11] = endpoint: mean survival time, dose: 200.0 mg/kg/injection, schedule: Q01DX009 (ip), vehicle: saline with Tween-80
[12] = endpoint: mean survival time, dose: 100.0 mg/kg/injection, schedule: Q01DX001 (ip), vehicle: saline with Tween-80
[13] = endpoint: mean survival time, dose: 200.0 mg/kg/injection, schedule: Q01DX001 (ip), vehicle: saline with Tween-80
[14] = endpoint: mean survival time, dose: 100.0 mg/kg/injection, schedule: Q04DX003 (ip), vehicle: saline with Tween-80
[15] = endpoint: mean survival time, dose: 200.0 mg/kg/injection, schedule: Q04DX003 (ip), vehicle: saline with Tween-80
[16] = endpoint: mean survival time, dose: 400.0 mg/kg/injection, schedule: Q04DX003 (ip), vehicle: saline with Tween-80

## CC1(O)CC2CCC1C2 (centres undefined)
[1]
  T/C: 95 % of control
[2]
  T/C: 90 % of control
[3]
  T/C: 87 % of control

## CCCCCCCCCCCCOc1ccc(Cl)cc1
[4]
  T/C: 90 % of control
[5]
  T/C: 98 % of control
[6]
  T/C: 90 % of control

## CCOC(=O)CCC(NC(=O)c1cc(Cl)c(N(CC)Cc2cnc3nc(N)nc(N)c3n2)c(Cl)c1)C(=O)OCC (centres undefined)
endpoint: mean survival time, dose: 25.0 mg/kg/injection, schedule: Q01DX009 (ip), vehicle: Klucel (hydroxypropylcellulose) (HPC)
  T/C: 170 % of control

## Nc1cc(Cl)c([N+](=O)[O-])cc1O
endpoint: mean survival time, dose: 50.0 mg/kg/injection, schedule: Q01DX009 (ip), vehicle: Klucel (hydroxypropylcellulose) (HPC)
  T/C: 91 % of control
endpoint: mean survival time, dose: 100.0 mg/kg/injection, schedule: Q01DX009 (ip), vehicle: Klucel (hydroxypropylcellulose) (HPC)
  T/C: 94 % of control
endpoint: mean survival time, dose: 200.0 mg/kg/injection, schedule: Q01DX009 (ip), vehicle: Klucel (hydroxypropylcellulose) (HPC)
  T/C: 94 % of control

## CCOC(=O)C1(C#N)C(=O)CSC1=Nc1ccccc1Cl (centres undefined)
[7]
  T/C: 90 % of control
[8]
  T/C: 91 % of control
[9]
  T/C: 86 % of control
[10]
  T/C: 86 % of control

## OC(CC(O)(C(F)(F)F)C(F)(F)F)CC(O)(C(F)(F)F)C(F)(F)F
endpoint: mean survival time, dose: 6.25 mg/kg/injection, schedule: Q01DX009 (ip), vehicle: saline with Tween-80
  T/C: 95 % of control
endpoint: mean survival time, dose: 12.5 mg/kg/injection, schedule: Q01DX009 (ip), vehicle: saline with Tween-80
  T/C: 92 % of control
[7]
  T/C: 90 % of control

## CN(C)N=Nc1ccccc1C(=O)NCC(N)=O
endpoint: mean survival time, dose: 18.75 mg/kg/injection, schedule: Q01DX009 (ip), vehicle: Klucel (hydroxypropylcellulose) (HPC)
  T/C: 103 % of control and 107 % of control
endpoint: mean survival time, dose: 37.5 mg/kg/injection, schedule: Q01DX009 (ip), vehicle: Klucel (hydroxypropylcellulose) (HPC)
  T/C: 115 % of control and 112 % of control

## CCCC(C)CC(=CC(C)(C)C)CC(C)CCC (centres undefined)
[8]
  T/C: 96 % of control
[9]
  T/C: 100 % of control
[11]
  T/C: 100 % of control

## CC1=C[S+](c2ccccc2)c2cccc3cc4ccccc4c1c23 (centres undefined)
endpoint: mean survival time, dose: 5.0 mg/kg/injection, schedule: Q01DX001 (ip), vehicle: saline with Tween-80
  T/C: 111 % of control
endpoint: mean survival time, dose: 10.0 mg/kg/injection, schedule: Q01DX001 (ip), vehicle: saline with Tween-80
  T/C: 106 % of control
endpoint: median survival time, dose: 0.06 mg/kg/injection, schedule: Q01DX009 (ip), vehicle: saline with Tween-80
  T/C: 105 % of control
endpoint: median survival time, dose: 0.12 mg/kg/injection, schedule: Q01DX009 (ip), vehicle: saline with Tween-80
  T/C: 105 % of control
endpoint: median survival time, dose: 0.25 mg/kg/injection, schedule: Q01DX009 (ip), vehicle: saline with Tween-80
  T/C: 107 % of control
endpoint: median survival time, dose: 0.5 mg/kg/injection, schedule: Q01DX009 (ip), vehicle: saline with Tween-80
  T/C: 109 % of control
endpoint: median survival time, dose: 1.0 mg/kg/injection, schedule: Q01DX009 (ip), vehicle: saline with Tween-80
  T/C: 109 % of control
endpoint: median survival time, dose: 2.0 mg/kg/injection, schedule: Q01DX009 (ip), vehicle: saline with Tween-80
  T/C: 115 % of control

## CC1CC(C)(C)N=C(C(Cc2ccccc2)Cc2ccccc2)O1 (centres undefined)
[12]
  T/C: 97 % of control
[13]
  T/C: 95 % of control

## COc1cccc(C(=O)NC[n+]2ccccc2)c1
[1]
  T/C: 110 % of control

## CC1(C)C2CCC1(C(=O)O)C(=O)C2 (centres undefined)
[14]
  T/C: 92 % of control
[15]
  T/C: 92 % of control
[16]
  T/C: 87 % of control

## COc1ccccc1NC(=S)NCCO
[9]
  T/C: 97 % of control
[11]
  T/C: 103 % of control
[10]
  T/C: 98 % of control

## Clc1cc(N2CC2)nc(N2CC2)n1
endpoint: mean survival time, dose: 0.94 mg/kg/injection, schedule: Q01DX009 (ip), vehicle: saline
  T/C: 122 % of control
endpoint: mean survival time, dose: 1.41 mg/kg/injection, schedule: Q01DX009 (ip), vehicle: saline
  T/C: 150 % of control
endpoint: mean survival time, dose: 1.6 mg/kg/injection, schedule: Q01DX009 (ip), vehicle: saline
  T/C: 120 % of control
endpoint: mean survival time, dose: 4.5 mg/kg/injection, schedule: Q01DX009 (ip), vehicle: saline
  T/C: 168 % of control
endpoint: mean survival time, dose: 7.5 mg/kg/injection, schedule: Q01DX009 (ip), vehicle: saline
  T/C: 89 % of control

## C#CCOC(=O)NCCC
endpoint: mean survival time, dose: 100.0 mg/kg/injection, schedule: Q04DX003 (ip), vehicle: Klucel (hydroxypropylcellulose) (HPC)
  T/C: 96 % of control
endpoint: mean survival time, dose: 200.0 mg/kg/injection, schedule: Q04DX003 (ip), vehicle: Klucel (hydroxypropylcellulose) (HPC)
  T/C: 100 % of control

## O=Nc1c(O)sc2ccccc12
[12]
  T/C: 110 % of control
[9]
  T/C: 97 % of control
[13]
  T/C: 105 % of control
[11]
  T/C: 100 % of control
endpoint: mean survival time, dose: 400.0 mg/kg/injection, schedule: Q01DX001 (ip), vehicle: saline with Tween-80
  T/C: 95 % of control
[10]
  T/C: 94 % of control

## COC1CCC(/C=C(\C#N)C2CCC([N+](=O)[O-])CC2)CC1Br (centres undefined)
endpoint: mean survival time, dose: 25.0 mg/kg/injection, schedule: Q04DX002 (ip), vehicle: saline with Tween-80
  T/C: 105 % of control
endpoint: mean survival time, dose: 50.0 mg/kg/injection, schedule: Q04DX002 (ip), vehicle: saline with Tween-80
  T/C: 96 % of control

## Oc1ccc(O)c2c1C1(Cl)C(Cl)=C(Cl)C2(Cl)C1(Cl)Cl
endpoint: mean survival time, dose: 100.0 mg/kg/injection, schedule: Q01DX009 (ip), vehicle: other
  T/C: 95 % of control
endpoint: mean survival time, dose: 200.0 mg/kg/injection, schedule: Q01DX009 (ip), vehicle: other
  T/C: 98 % of control
endpoint: mean survival time, dose: 400.0 mg/kg/injection, schedule: Q01DX009 (ip), vehicle: other
  T/C: 106 % of control

## O=C(/C=C/c1ccccn1)c1ccc(Cl)cc1
endpoint: mean survival time, dose: 100.0 mg/kg/injection, schedule: Q01DX001 (ip), vehicle: Klucel (hydroxypropylcellulose) (HPC)
  T/C: 97 % of control
endpoint: mean survival time, dose: 200.0 mg/kg/injection, schedule: Q01DX001 (ip), vehicle: Klucel (hydroxypropylcellulose) (HPC)
  T/C: 97 % of control
endpoint: mean survival time, dose: 400.0 mg/kg/injection, schedule: Q01DX001 (ip), vehicle: Klucel (hydroxypropylcellulose) (HPC)
  T/C: 105 % of control

## [Cl][Pt+2][Cl].[NH-]c1ccccc1F.[NH-]c1ccccc1F
endpoint: mean survival time, dose: 15.63 mg/kg/injection, schedule: Q04DX003 (ip), vehicle: saline with Tween-80
  T/C: 112 % of control
endpoint: mean survival time, dose: 31.25 mg/kg/injection, schedule: Q04DX003 (ip), vehicle: saline with Tween-80
  T/C: 108 % of control
endpoint: mean survival time, dose: 62.5 mg/kg/injection, schedule: Q04DX003 (ip), vehicle: saline with Tween-80
  T/C: 115 % of control
endpoint: mean survival time, dose: 125.0 mg/kg/injection, schedule: Q04DX003 (ip), vehicle: saline with Tween-80
  T/C: 93 % of control

## Cc1ccc(S(=O)(=O)NC(CSCc2ccccc2)C(=O)O)cc1 (centres undefined)
[14]
  T/C: 94 % of control
[15]
  T/C: 93 % of control
[16]
  T/C: 95 % of control

## O=c1[nH]cc(N=Cc2ccccc2O)c(=O)[nH]1.[Cl][Pt]
endpoint: mean survival time, dose: 3.13 mg/kg/injection, schedule: Q04DX003 (ip), vehicle: water
  T/C: 96 % of control
endpoint: mean survival time, dose: 6.25 mg/kg/injection, schedule: Q04DX003 (ip), vehicle: water
  T/C: 96 % of control
endpoint: mean survival time, dose: 12.5 mg/kg/injection, schedule: Q04DX003 (ip), vehicle: water
  T/C: 97 % of control
endpoint: mean survival time, dose: 25.0 mg/kg/injection, schedule: Q04DX003 (ip), vehicle: water
  T/C: 108 % of control
endpoint: mean survival time, dose: 50.0 mg/kg/injection, schedule: Q04DX003 (ip), vehicle: water
  T/C: 102 % of control
endpoint: mean survival time, dose: 100.0 mg/kg/injection, schedule: Q04DX003 (ip), vehicle: water
  T/C: 100 % of control
endpoint: mean survival time, dose: 200.0 mg/kg/injection, schedule: Q04DX003 (ip), vehicle: water
  T/C: 108 % of control

## CCCCCOS(=O)(=O)O
endpoint: mean survival time, dose: 100.0 mg/kg/injection, schedule: Q01DX001 (ip), vehicle: saline
  T/C: 108 % of control
endpoint: mean survival time, dose: 200.0 mg/kg/injection, schedule: Q01DX001 (ip), vehicle: saline
  T/C: 120 % of control
endpoint: mean survival time, dose: 400.0 mg/kg/injection, schedule: Q01DX001 (ip), vehicle: saline
  T/C: 102 % of control

## Cc1ccc(C(O)S(=O)(=O)O)cc1 (centres undefined)
[14]
  T/C: 119 % of control
[15]
  T/C: 103 % of control
[16]
  T/C: 115 % of control

## CC(=O)[C@@]12O[C@@H]1C[C@H]1[C@@H]3CCC4=CC(=O)CC[C@]4(C)[C@H]3CC[C@@]12C
[4]
  T/C: 96 % of control
[5]
  T/C: 101 % of control
[6]
  T/C: 96 % of control

## CN(C)CCCNCc1c[nH]c(=O)[nH]c1=O
endpoint: mean survival time, dose: 100.0 mg/kg/injection, schedule: Q01DX009 (ip), vehicle: saline
  T/C: 90 % of control
[1]
  T/C: 102 % of control
endpoint: mean survival time, dose: 200.0 mg/kg/injection, schedule: Q01DX009 (ip), vehicle: saline
  T/C: 102 % of control
[2]
  T/C: 100 % of control
endpoint: mean survival time, dose: 400.0 mg/kg/injection, schedule: Q01DX009 (ip), vehicle: saline
  T/C: 104 % of control
[3]
  T/C: 100 % of control
